# Assays:
# [1] = target: T1, Stress-70 protein, mitochondrial (Homo sapiens, UniProt P38646); assay: Binding affinity to mortalin substrate binding domain (unknown origin)
# A2780 [2] = assay: Antiproliferative activity against human A2780 cells assessed as cell growth inhibition measured after 72 hrs by CellTiter 96 non-radioactive cell proliferation assay; type: functional, cell-based; details: A2780, 72 h
# [3] = target: T1, Stress-70 protein, mitochondrial
# Description: Binding affinity to mortalin substrate binding domain (unknown origin) assessed as change in Gibbs free energy
# A2780 [4] = assay: Antiproliferative activity against human A2780 cells assessed as cell growth inhibition at 2 to 8 uM measured after 72 hrs by CellTiter 96 non-radioactive cell proliferation assay relative to control; type: functional
# T1 sequence (P38646 whole entry, the tested form may be a part): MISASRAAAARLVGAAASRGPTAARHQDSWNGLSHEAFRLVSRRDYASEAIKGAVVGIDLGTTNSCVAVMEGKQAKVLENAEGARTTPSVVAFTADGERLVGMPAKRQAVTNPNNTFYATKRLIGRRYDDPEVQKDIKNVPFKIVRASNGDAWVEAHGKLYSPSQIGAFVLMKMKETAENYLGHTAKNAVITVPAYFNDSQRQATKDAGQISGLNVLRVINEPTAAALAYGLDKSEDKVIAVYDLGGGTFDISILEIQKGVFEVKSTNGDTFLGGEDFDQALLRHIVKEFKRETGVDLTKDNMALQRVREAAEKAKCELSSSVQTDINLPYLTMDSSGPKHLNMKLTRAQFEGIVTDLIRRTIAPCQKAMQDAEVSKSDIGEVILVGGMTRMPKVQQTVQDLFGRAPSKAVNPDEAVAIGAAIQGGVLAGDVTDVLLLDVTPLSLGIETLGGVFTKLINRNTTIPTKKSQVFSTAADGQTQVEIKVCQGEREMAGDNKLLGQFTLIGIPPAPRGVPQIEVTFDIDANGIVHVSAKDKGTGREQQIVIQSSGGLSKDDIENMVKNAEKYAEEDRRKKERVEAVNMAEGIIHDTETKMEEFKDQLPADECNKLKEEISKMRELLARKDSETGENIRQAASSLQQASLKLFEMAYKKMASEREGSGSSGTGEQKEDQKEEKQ
IC50 (A2780 [2]),deltaG [3],Structure (SMILES),Kd [1],Efficacy (A2780 [4])
5.4 µM,-7.7 kcal/mol,CN1c2ccc(NC(=S)Nc3ccc(OC(F)(F)F)cc3)cc2C(C)(C)C(=O)C1(C)C,2.4 µM,–
6.7 µM,-8.4 kcal/mol,CN1c2ccc(NC(=O)Nc3ccc(C(F)(F)F)cc3)cc2C(C)(C)C(O)C1(C)C (configuration not stated),0.7 µM,–
10 µM,–,CN1c2ccc(NC(=S)Nc3ccc([N+](=O)[O-])cc3)cc2C(C)(C)C(O)C1(C)C (configuration not stated),–,25%
7.7 µM,-8.2 kcal/mol,CN1c2ccc(NC(=O)Nc3ccc(N)cc3)cc2C(C)(C)C(=O)C1(C)C,1.1 µM,–
2.58 µM,-8 kcal/mol,CN1c2ccc(NC(=O)Nc3ccc(C(F)(F)F)cc3)cc2C(C)(C)C(=O)C1(C)C,1.5 µM,–
4.5 µM,-8.7 kcal/mol,CN1c2ccc(NC(=S)Nc3ccc([N+](=O)[O-])cc3)cc2C(C)(C)CC1(C)C,0.5 µM,–
7.6 µM,-7.7 kcal/mol,CN1c2ccc(NC(=S)Nc3ccc(C(F)(F)F)cc3)cc2C(C)(C)C(O)C1(C)C (configuration not stated),2.3 µM,–
–,-8.5 kcal/mol,CC1(C)CC(C)(C)c2cc(NC(=S)Nc3ccc([N+](=O)[O-])cc3)ccc2S1 [SHETA-2],0.6 µM,–
6 µM,-7.5 kcal/mol,CC1(C)CCNc2ccc(NC(=S)Nc3ccc(C(F)(F)F)cc3)cc21,3.3 µM,–
3.9 µM,–,CN1c2ccc(NC(=S)Nc3ccc(C(F)(F)F)cc3)cc2C(C)(C)C(=O)C1(C)C,–,90.8%
7.1 µM,-7.2 kcal/mol,CC1(C)CCNc2ccc(NC(=S)Nc3ccc(OC(F)(F)F)cc3)cc21,5.4 µM,–
7.8 µM,-8.2 kcal/mol,CN1c2ccc(NC(=O)Nc3ccc(OC(F)(F)F)cc3)cc2C(C)(C)C(O)C1(C)C (configuration not stated),1.1 µM,–
6.9 µM,-8.2 kcal/mol,CC1(C)CCNc2ccc(NC(=O)Nc3ccc([N+](=O)[O-])cc3)cc21,1.1 µM,–
4.4 µM,-8.2 kcal/mol,CN1c2ccc(NC(=S)Nc3ccc([N+](=O)[O-])cc3)cc2C(C)(C)C(=O)C1(C)C,1.1 µM,–
13.1 µM,-7.6 kcal/mol,CN1c2ccc(NC(=S)Nc3ccc(OC(F)(F)F)cc3)cc2C(C)(C)C(O)C1(C)C (configuration not stated),2.9 µM,–
7.1 µM,-7.9 kcal/mol,CC1(C)CCNc2ccc(NC(=S)Nc3ccc([N+](=O)[O-])cc3)cc21,1.6 µM,–
6.6 µM,-8.5 kcal/mol,CC1(C)CC[N+](C)(C)c2ccc(NC(=O)Nc3ccc([N+](=O)[O-])cc3)cc21,0.7 µM,–
8.4 µM,-8 kcal/mol,CN1c2ccc(NC(=O)Nc3ccc([N+](=O)[O-])cc3)cc2C(C)(C)C(O)C1(C)C (configuration not stated),1.6 µM,–
2.4 µM,-7.9 kcal/mol,CN1c2ccc(NC(=O)Nc3ccc(OC(F)(F)F)cc3)cc2C(C)(C)C(=O)C1(C)C,1.8 µM,–
3.8 µM,-8.9 kcal/mol,CN1c2ccc(NC(=O)Nc3ccc([N+](=O)[O-])cc3)cc2C(C)(C)C(=O)C1(C)C,0.3 µM,–
